Results taken from patent US11083725B2 (priority 2014, dated 2021).
Where two headings read alike, the source gives them in different places.

Experiments:
NHBE cells = experiment: cells; format: cell-based, human
CA09 = experiment: microbe, parasite or virus in culture; format: cell-based, influenza virus H1N1 strain A/CA/04/2009; set-up: TCID50 (per mL): unit not given here; details: for log reduction at 10 pM / log reduction at 0.0001 µM / log reduction at 0.001 µM / log reduction at 0.01 µM / log reduction at 0.1 µM / log reduction at 1 µM / log reduction at 10 µM / log reduction at 100 µM: NHBE, read-out: TCID50 (per mL)
[1] = […], therapeutic schedule, dose response 4 nM to 10 μM, […], read-out: IC50, Therapeutic Treatment, Control
[2] = Homo sapiens, NHBE, 72 h, […], prophylactic schedule, dose response 4 nM to 10 μM, […], read-out: IC50, Prophylactic Treatment, Control
[3] = […], prophylactic schedule, dose response 4 nM to 10 μM, […], read-out: IC50, Prophylactic Treatment, Control
[4] = […], dose response 4 nM to 10 μM, […], read-out: IC50, Therapeutic Treatment, Viral Infected
[5] = Homo sapiens, NHBE, 72 h, read-out: IC50, Therapeutic Treatment, Control
[6] = Homo sapiens, NHBE, 72 h, read-out: IC50, Prophylactic Treatment, Control
[7] = Therapeutic Drug Treatment, Drug Dose 10 pM, […]
[8] = Therapeutic Drug Treatment, Drug Dose 100 pM, […]
[9] = Therapeutic Drug Treatment, Drug Dose 1 nM, […]
[10] = Therapeutic Drug Treatment, Drug Dose 10 nM, […]
[11] = Therapeutic Drug Treatment, Drug Dose 100 nM, […]
[12] = Therapeutic Drug Treatment, Drug Dose 1 μM, […]
[13] = Therapeutic Drug Treatment, Drug Dose 10 μM, […]
[14] = Therapeutic Drug Treatment, Drug Dose 100 μM, […]
[15] = […], dose response 4 nM to 10 μM, […], read-out: IC50, Prophylactic Treatment, Viral Infected

Compound: CC(C)c1c(C(=O)Nc2ccccc2)c(-c2ccccc2)c(-c2ccc(F)cc2)n1CC[C@@H](O)C[C@@H](O)CC(=O)O [ATORVASTATIN CALCIUM]
- IC50 (NHBE cells; read-out: IC50, Prophylactic Treatment, Control): 3000 nM
- IC50 (NHBE cells; read-out: IC50, Prophylactic Treatment, Viral Infected): 3000 nM

Compound: CO/C(=C\C(N)=O)[C@H](C)[C@H](/C=C/c1csc(-c2csc([C@@H](C)/C=C/C=C/C(C)C)n2)n1)OC [Myxothiazol]
- Cell Death Prophylactic (NHBE cells): C = V
- Cell Death Therapeutic (NHBE cells): C > V

Compound: OLIGOMYCIN (A SHOWN)
- IC50 (NHBE cells; read-out: IC50, Therapeutic Treatment, Control): 1000 nM
- IC50 (NHBE cells; read-out: IC50, Therapeutic Treatment, Viral Infected): 4 nM

Compound: OO.OO.[K+].[OH-].[V].c1cnc2c(c1)ccc1cccnc12 [BPV(PHEN)]
- IC50 (NHBE cells; [1]): 5 nM

Compound: O=C(O)Cn1nnc(-c2cc(N3CCC(Oc4cc(F)ccc4Br)CC3)no2)n1 [MK-8245]
- IC50 (NHBE cells; [2]): 5000 nM

Compound: LB 42708
- IC50 (NHBE cells; [1]): 4.5 nM

Compound: N#C/C(=C\c1ccc(O)cc1)C(=O)O [ALPHA-CYANO-4-HYDROXYCINNAMIC ACID]
- IC50 (NHBE cells; [3]): 3000 nM

Compound: CC[C@@H]1/C=C/C=C/C[C@H](C)[C@@H](O)[C@](C)(O)C(=O)[C@H](C)[C@@H](O)[C@H](C)C(=O)[C@H](C)[C@@H](O)[C@H](C)/C=C/C(=O)O[C@H]2[C@@H](C)[C@@H](CC1)O[C@@]1(CC[C@@H](C)C(CC(C)O)O1)[C@@H]2C (some centres unmarked) [Oligomycin A]
- Cell Death Prophylactic (NHBE cells): C > V
- Cell Death Therapeutic (NHBE cells): C > V
- Viral Titer Therapeutic (CA09): Reduced
- log reduction at 10 pM (CA09): 0.92
- log reduction at 0.0001 µM (CA09): 0.23
- log reduction at 0.001 µM (CA09): 0.51
- log reduction at 0.01 µM (CA09): 0.6
- log reduction at 0.1 µM (CA09): 0.38
- log reduction at 1 µM (CA09): 0.77
- log reduction at 10 µM (CA09): 0.66
- log reduction at 100 µM (CA09): 0.28

Compound: CCCCCCCCCCCCCCOc1ccc(C(=O)O)o1 [TOFA]
- IC50 (NHBE cells; [3]): 4000 nM

Compound: O=[N+]([O-])c1ccc(O)c([N+](=O)[O-])c1 [2,4-DINITROPHENOL]
- IC50 (NHBE cells; [4]): 4000 nM
- IC50 (NHBE cells; [3]): 380 nM
- IC50 (NHBE cells; [1]): 8000 nM

Compound: CS(=O)(=O)N1CCN(Cc2cc3nc(-c4cccc5[nH]ncc45)nc(N4CCOCC4)c3s2)CC1 [GDC-0941]
- Cell Death Prophylactic (NHBE cells): C = V
- Cell Death Therapeutic (NHBE cells): C = V
- NHBE cell survival / cell death after infection (NHBE cells): no effect

Compound: CC(C)(Oc1ccc(CCNC(=O)c2ccc(Cl)cc2)cc1)C(=O)O [BEZAFIBRATE]
- IC50 (NHBE cells; [2]): 7200 nM

Compound: COc1cc(/C=C/C(=O)CC(=O)/C=C/c2ccc(O)c(OC)c2)ccc1O [CURCUMIN]
- IC50 (NHBE cells; [2]): 1 nM

Compound: CCc1c(-c2ccccc2)c(-c2ccccc2)nn1-c1ccccc1-c1cccc(OCC(=O)O)c1 [FABP4 Inhibitor]
- Cell Death Prophylactic (NHBE cells): V > C
- IC50 (NHBE cells; [5]): 4000 nM
- Viral Titer Prophylactic (CA09): Reduced

Compound: Nc1cc(C(F)(F)F)c(-c2cc(N3CCOCC3)nc(N3CCOCC3)n2)cn1 [NVP-BKM120]
- Cell Death Prophylactic (NHBE cells): C = V
- Cell Death Therapeutic (NHBE cells): C = V
- NHBE cell survival / cell death after infection (NHBE cells): no effect
- log reduction at 10 pM (CA09): 0
- log reduction at 0.0001 µM (CA09): 0.4
- log reduction at 0.001 µM (CA09): 0.76
- log reduction at 0.01 µM (CA09): 0
- log reduction at 0.1 µM (CA09): 0.29
- log reduction at 1 µM (CA09): -0.08
- log reduction at 10 µM (CA09): 0.07
- log reduction at 100 µM (CA09): -0.37

Compound: CC(C)CCN1c2nc(Nc3cc(F)c(O)c(F)c3)ncc2N(C)C(=O)C1C (centres unmarked) [BI-D1870]
- Cell Death Prophylactic (NHBE cells): C > V
- Viral Titer Prophylactic (CA09): Reduced
- log reduction at 10 pM (CA09): 0.28
- log reduction at 0.0001 µM (CA09): 1.18
- log reduction at 0.001 µM (CA09): 0.78
- log reduction at 0.01 µM (CA09): 0.2
- log reduction at 0.1 µM (CA09): 0.99
- log reduction at 1 µM (CA09): 0.84
- log reduction at 10 µM (CA09): 0.6
- log reduction at 100 µM (CA09): 0.65

Compound: C=C1C(=O)O[C@H](CCCCCCCC)[C@H]1C(=O)O [C75]
- Cell Death Prophylactic (NHBE cells): C > V
- Cell Death Therapeutic (NHBE cells): C = V

Compound: Cn1cncc1[C@@](N)(c1ccc(Cl)cc1)c1ccc2c(c1)c(-c1cccc(Cl)c1)cc(=O)n2C [Tipifarnib]
- IC50 (NHBE cells; [6]): 12 nM
- IC50 (NHBE cells; [5]): 13 nM
- IC50 (NHBE cells; Homo sapiens, NHBE, read-out: IC50, Therapeutic Treatment, Viral Infected): 33 nM
- log reduction at 10 pM (CA09): 0.02
- log reduction at 0.0001 µM (CA09): 0.73
- log reduction at 0.001 µM (CA09): 1.04
- log reduction at 0.01 µM (CA09): 0.6
- log reduction at 0.1 µM (CA09): -0.16
- log reduction at 1 µM (CA09): 1.04
- log reduction at 10 µM (CA09): 1.4
- log reduction at 100 µM (CA09): 0

Compound: CSCC[C@H](NC(=O)[C@H](Cc1ccccc1)NC[C@@H](NC[C@@H](N)CS)C(C)C)C(=O)O [FTASE INHIBITOR I]
- IC50 (NHBE cells; [4]): 200 nM
- IC50 (NHBE cells; [1]): 90 nM

Compound: [O]=[V]1(=[O])(=[O])(=[O])[n+]2cccc3ccc4ccc[n+]1c4c32 [BP/(PHEN)]
- Cell Death Prophylactic (NHBE cells): V > C
- TCID50 (per mL) (CA09; [7]): −0.50
- TCID50 (per mL) (CA09; [8]): −0.54
- TCID50 (per mL) (CA09; [9]): −0.44
- TCID50 (per mL) (CA09; [10]): −0.74
- TCID50 (per mL) (CA09; [11]): −0.13
- TCID50 (per mL) (CA09; [12]): −0.32
- TCID50 (per mL) (CA09; [13]): −0.10
- TCID50 (per mL) (CA09; [14]): −0.18

Compound: CCC(C)(C)C(=O)O[C@H]1C[C@@H](C)C=C2C=C[C@H](C)[C@H](CC[C@@H]3C[C@@H](O)CC(=O)O3)[C@H]21 [SIMVASTATIN]
- IC50 (NHBE cells; Homo sapiens, NHBE, 72 h, […], therapeutic schedule, dose response 4 nM to 10 μM, […], read-out: IC50, Therapeutic Treatment, Control): 5 nM

Compound: O=C1Nc2ccc3ncsc3c2/C1=C/c1cnc[nH]1 [IMIDAZOLO-OXINDOLE PKR INHIBITOR C16]
- IC50 (NHBE cells; [1]): 70 nM

Compound: Cc1cc([C@@H](C)Nc2ccccc2C(=O)O)c2nc(N3CCOCC3)cc(=O)n2c1 [AZD-6482]
- IC50 (NHBE cells; [2]): 5000 nM

Compound: NC(=O)N1CCC(CC(=O)N2CCC([C@H]3c4ncc(Br)cc4CCc4cc(Cl)cc(Br)c43)CC2)CC1 [Lonafarnib]
- Cell Death Prophylactic (NHBE cells): C > V
- IC50 (NHBE cells; [6]): 1900 nM
- IC50 (NHBE cells; Homo sapiens, NHBE, read-out: IC50, Prophylactic Treatment, Viral Infected): 1300 nM
- log reduction at 10 pM (CA09): 0.04
- log reduction at 0.0001 µM (CA09): 0.15
- log reduction at 0.001 µM (CA09): 0.56
- log reduction at 0.01 µM (CA09): -0.06
- log reduction at 0.1 µM (CA09): 0.3
- log reduction at 1 µM (CA09): 1.16
- log reduction at 10 µM (CA09): 0.28
- log reduction at 100 µM (CA09): 1.25

Compound: CCn1nnc2c(N3CCOCC3)nc(-c3ccc(NC(=O)Nc4ccc(C(=O)N5CCN(C)CC5)cc4)cc3)nc21 [PKI-402]
- Cell Death Prophylactic (NHBE cells): C = V
- Cell Death Therapeutic (NHBE cells): C = V
- NHBE cell survival / cell death after infection (NHBE cells): no effect
- IC50 (NHBE cells; [15]): 3000 nM
- IC50 (NHBE cells; [1]): 2 nM

Compound: O=C([O-])CC(O)C(=O)[O-].[Na+].[Na+] (racemic) [DISODIUM DL-MALATE HYDRATE]
- IC50 (NHBE cells; [4]): 7000 nM
- IC50 (NHBE cells; [3]): 30 nM

Compound: CCc1ccc(CCOc2ccc(CC3SC(=O)NC3=O)cc2)nc1 (centres unmarked) [Pioglitazone]
- Cell Death Prophylactic (NHBE cells): C > V
- log reduction at 10 pM (CA09): 0.22
- log reduction at 0.0001 µM (CA09): 0.8
- log reduction at 0.001 µM (CA09): 0.66
- log reduction at 0.01 µM (CA09): 0.47
- log reduction at 0.1 µM (CA09): -0.1
- log reduction at 1 µM (CA09): 0.49
- log reduction at 10 µM (CA09): 0.73
- log reduction at 100 µM (CA09): 0.23

Compound: C=C(C)[C@H]1Cc2c(ccc3c2O[C@@H]2COc4cc(OC)c(OC)cc4[C@@H]2C3=O)O1 [Rotenone]
- Cell Death Prophylactic (NHBE cells): C > V
- Cell Death Therapeutic (NHBE cells): C > V
- log reduction at 10 pM (CA09; [7]): 0.09
- log reduction at 0.0001 µM (CA09; [8]): 0.15
- log reduction at 0.001 µM (CA09; [9]): 0.9
- log reduction at 0.01 µM (CA09; [10]): 0.04
- log reduction at 0.1 µM (CA09; [11]): 0.07
- log reduction at 1 µM (CA09; [12]): 0.5
- log reduction at 10 µM (CA09; [13]): 1.14
- log reduction at 100 µM (CA09; [14]): -0.05

Compound: PF 429242
- IC50 (NHBE cells; [15]): 6000 nM
